Assay results reported in the Deep4Chem optical property database.

Assay: solvent given as SMILES

Compound: CC1=NN(c2ccccc2)C(=O)/C1=C\c1cn(-c2ccccc2)nc1-c1ccc([N+](=O)[O-])cc1
- absorption maximum (in C1CCOC1): 343 nm
- absorption maximum (in C1COCCO1): 361 nm
- absorption maximum (in CCO): 362 nm
- absorption maximum (in CCOC(C)=O): 359 nm
- absorption maximum (in CN(C)C=O): 361 nm
- absorption maximum (in CO): 360 nm
- absorption maximum (in CS(C)=O): 364 nm
- absorption maximum (in Cc1ccccc1): 364 nm
- absorption maximum (in ClC(Cl)Cl): 363 nm

Compound: CN(C)c1c2ccccc2cc2ccccc12
- absorption maximum (in C1CCCCC1): 386 nm
- absorption maximum (in C1CCOC1): 386 nm
- absorption maximum (in C1COCCO1): 387 nm
- absorption maximum (in CC#N): 386 nm
- absorption maximum (in CCO): 385 nm
- absorption maximum (in CN(C)C=O): 388 nm
- absorption maximum (in CO): 384 nm
- absorption maximum (in COCCOC): 386 nm
- absorption maximum (in CS(C)=O): 390 nm
- absorption maximum (in O): 385 nm
- absorption maximum (in OCC(O)CO): 393 nm
- absorption maximum (in OCCO): 388 nm

Compound: N#C/C(=C\c1cc(/C=C(\C#N)c2ccc(C(F)(F)F)cc2)c(-c2ccc(N(c3ccccc3)c3ccccc3)cc2)cc1-c1ccc(N(c2ccccc2)c2ccccc2)cc1)c1ccc(C(F)(F)F)cc1
- absorption maximum (in C1CCCCC1): 405 nm
- absorption maximum (in C1CCOC1): 402 nm
- absorption maximum (in CCCCCC): 402 nm
- absorption maximum (in CCOC(C)=O): 397 nm
- absorption maximum (in Cc1ccccc1): 408 nm
- absorption maximum (in ClC(Cl)Cl): 407 nm
- absorption maximum (in ClCCl): 405 nm

Compound: Oc1ccccc1/N=C/c1ccccc1Oc1ccccc1
- absorption maximum (in C1CCCCC1): 353 nm
- absorption maximum (in C1CCOC1): 355 nm
- absorption maximum (in C1COCCO1): 367 nm
- absorption maximum (in CC#N): 349 nm
- absorption maximum (in CC(C)=O): 366 nm
- absorption maximum (in CC(C)CO): 352 nm
- absorption maximum (in CC(C)O): 352 nm
- absorption maximum (in CCCCC): 355 nm
- absorption maximum (in CCCCCC): 367 nm
- absorption maximum (in CCCCCCCCO): 355 nm
- absorption maximum (in CCCCCCCO): 354 nm
- absorption maximum (in CCCCCCO): 355 nm
- absorption maximum (in CCCCO): 353 nm
- absorption maximum (in CCCCOC(C)=O): 367 nm
- absorption maximum (in CCCO): 351 nm
- absorption maximum (in CCO): 350 nm
- absorption maximum (in CCOCC): 363 nm
- absorption maximum (in CN(C)C=O): 349 nm
- absorption maximum (in CO): 348 nm
- absorption maximum (in CS(C)=O): 373 nm
- absorption maximum (in Cc1ccccc1): 381 nm
- absorption maximum (in Cc1ccccc1C): 359 nm
- absorption maximum (in ClC(Cl)Cl): 356 nm
- absorption maximum (in ClCCl): 356 nm
- absorption maximum (in N#Cc1ccccc1): 357 nm
- absorption maximum (in OCCO): 349 nm
- absorption maximum (in c1ccccc1): 366 nm

Compound: COC(=O)c1nc2cnc(N)nc2n1Cc1ccccc1
- absorption maximum (in C1COCCO1): 331 nm
- absorption maximum (in CC#N): 330 nm
- absorption maximum (in CO): 335 nm
- absorption maximum (in ClCCl): 328 nm
- absorption maximum (in O): 325 nm

Compound: O=c1[nH]c2[n+](c3ccccc13)[B-](F)(F)Oc1ccccc1-2
- absorption maximum (in CC#N): 343 nm
- absorption maximum (in Cc1ccccc1): 354 nm

Compound: CC1(C)C(/C=C/C=C/c2cc3ccc(O)cc3oc2=O)=[N+](CCCS(=O)(=O)[O-])c2ccc(S(=O)(=O)O)cc21
- absorption maximum (in CCO): 508 nm
- absorption maximum (in CS(C)=O): 494 nm
- absorption maximum (in O): 592 nm

Compound: COC(=O)c1cc(=O)n(C)c2cc(-c3ccccc3OC)sc12
- absorption maximum (in CC#N): 396 nm
- absorption maximum (in ClCCl): 398 nm

Compound: CCCCOC(=O)c1cc(Cl)c2c3c(Cl)cc4c5c(cc(Cl)c(c6c(Oc7ccc(OC)cc7)cc(C(=O)OCCCC)c1c26)c53)C(=O)N(c1c(C(C)C)cccc1C(C)C)C4=O
- absorption maximum (in Cc1ccccc1): 519 nm

Compound: COCc1ncc(-c2c3ccccc3c(-c3cnc(COC)nc3)c3ccccc23)cn1
- absorption maximum (in CCO): 395 nm
- absorption maximum (in ClCCl): 397 nm

Compound: C(=N\c1ccc(-c2cn3nc(-c4cccs4)sc3n2)cc1)/c1ccc(N(c2ccccc2)c2ccccc2)cc1
- absorption maximum (in ClC(Cl)Cl): 390 nm

Compound: F[B-]1(F)n2c(c3ccccc3c2-c2ccccc2)C=C2c3ccccc3C(c3ccccc3)=[N+]21
- absorption maximum (in C1CCOC1): 640 nm
- absorption maximum (in ClCCl): 634 nm

Compound: C[Si]1(c2ccccc2)C(c2ccc3c(c2)c2ccccc2n3-c2ccccc2)=C(c2ccccc2)C(c2ccccc2)=C1c1ccc2c(c1)c1ccccc1n2-c1ccccc1
- absorption maximum (in C1CCOC1): 404 nm

Compound: CC(C)(C)NC(=O)c1cc2ccc3cccc4ccc(c1C(=O)NC(C)(C)C)c2c34
- absorption maximum (in ClC(Cl)Cl): 385 nm
